For seven compounds, inhibition results are on record in patent US10414769B2, “5,8-dimethyl-9-phenyl-5,8-dihydro-6H-pyrazolo[3,4-h]quinazolin-2-yl)-(1H-pyrazol-3-yl)-amines as IGF-1R/IR inhibitors” (Boehringer Ingelheim International GmbH, priority 2015, dated 2019).

Type in all cases: biochemical
One experiment has as its target T1, STK6 (AURKA (Aurora A)) (Homo sapiens, UniProt O14965).
T1 construct: purchased Life Technologies PV 3612
T1 sequence (O14965 1-403): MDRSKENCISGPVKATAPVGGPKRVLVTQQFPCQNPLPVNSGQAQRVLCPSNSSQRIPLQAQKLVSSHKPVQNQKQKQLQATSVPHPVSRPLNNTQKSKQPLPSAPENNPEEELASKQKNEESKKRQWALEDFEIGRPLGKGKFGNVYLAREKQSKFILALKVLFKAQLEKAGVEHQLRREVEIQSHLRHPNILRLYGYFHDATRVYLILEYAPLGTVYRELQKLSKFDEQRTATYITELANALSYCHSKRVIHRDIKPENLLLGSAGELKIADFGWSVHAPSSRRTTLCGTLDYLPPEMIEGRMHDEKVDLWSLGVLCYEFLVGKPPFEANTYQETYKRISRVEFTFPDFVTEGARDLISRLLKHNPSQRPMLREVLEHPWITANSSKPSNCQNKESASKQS
Nature of the experiment: Z'-LYTE kinase selectivity assay STK6. The following applies: read-out: STK6 (Aur A) % inhibition. An excerpt:
(§1) In order to compare the kinase selectivity of compounds (I) according to the invention with known prior art compounds the commercially provided SelectScreen® Kinase Profiling Service (Z′-LYTE®) was used (Life Technologies GmbH, Darmstadt, Germany) to investigate the ability of the compounds to inhibit a number of different, representatively selected human kinases. Further details regarding this service are available on the Life Technologies website at
(§2) The Z′-LYTE® biochemical assay employs a fluorescence-based, coupled-enzyme format and is based on the differential sensitivity of phosphorylated and non-phosphorylated peptides to proteolytic cleavage. The peptide substrate is labeled with two fluorophores—one at each end—that make up a FRET pair.
In the primary reaction, the kinase transfers the gamma-phosphate of ATP to a single tyrosine, serine or threonine residue in a synthetic FRET-peptide. In the secondary reaction, a site-specific protease recognizes and cleaves non-phosphorylated FRET-peptides. Phosphorylation of FRET-peptides suppresses cleavage by the Development Reagent. Cleavage disrupts FRET between the donor (i.e., coumarin) and acceptor (i.e., fluorescein) fluorophores on the FRET-peptide, whereas uncleaved, phosphorylated FRET-peptides maintain FRET. A ratiometric method, which calculates the ratio (the Emission Ratio) of donor emission to acceptor emission after excitation of the donor fluorophore at 400 nm, is used to quantitate reaction progress, as shown in the equation below.
The Test Compounds are screened at 1 μM.
The 2×AURKA (Aurora A) (# PV 3612)/Ser/Thr 01 (Z′-LYTE® Kinase Assay Kit—Ser/Thr 1 Peptide, # PV 3174) mixture is prepared in 50 mM HEPES pH 7.5, 0.01% BRIJ-35, 10 mM MgCl2, 1 mM EGTA. The final 10 μL Kinase Reaction consists of 0.91-12.2 ng AURKA (Aurora A) and 2 μM Ser/Thr 01 in 50 mM HEPES pH 7.5, 0.01% BRIJ-35, 10 mM MgCl2, 1 mM EGTA. After the 1 hour Kinase Reaction incubation, 5 μL of a 1:4096 dilution of Development Reagent A is added.

The next experiment concerns the target T2, MAPK8 (JNK1) (Homo sapiens, UniProt P45983).
T2 construct: purchased Life Technologies PV 3593
In words: Z'-LYTE kinase selectivity assay MAPK8.
Description: as §1, §2
(§3) In the primary reaction, the kinase transfers the gamma-phosphate of ATP to a single tyrosine, serine or threonine residue in a synthetic FRET-peptide. In the secondary reaction, a site-specific protease recognizes and cleaves non-phosphorylated FRET-peptides. Phosphorylation of FRET-peptides suppresses cleavage by the Development Reagent. […] A ratiometric method, which calculates the ratio (the Emission Ratio) of donor emission to acceptor emission after excitation of the donor fluorophore at 400 nm, is used to quantitate reaction progress, as shown in the equation below. […]

For another experiment, the target named is T3, MAPK9 (JNK2) (Homo sapiens, UniProt P45984).
T3 construct: purchased Life Technologies PV 4018
T3 sequence (P45984 whole entry): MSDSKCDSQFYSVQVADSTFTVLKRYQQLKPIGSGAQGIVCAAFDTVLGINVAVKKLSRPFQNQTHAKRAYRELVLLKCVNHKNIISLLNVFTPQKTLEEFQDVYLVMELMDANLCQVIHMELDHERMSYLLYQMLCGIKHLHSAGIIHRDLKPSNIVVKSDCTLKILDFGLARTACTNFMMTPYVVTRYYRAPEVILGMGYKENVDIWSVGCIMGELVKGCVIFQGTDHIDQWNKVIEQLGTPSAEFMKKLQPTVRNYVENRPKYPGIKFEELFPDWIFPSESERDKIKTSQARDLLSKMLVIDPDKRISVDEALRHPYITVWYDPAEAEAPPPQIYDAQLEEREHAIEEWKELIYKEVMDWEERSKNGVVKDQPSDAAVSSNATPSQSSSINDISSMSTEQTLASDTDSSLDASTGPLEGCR
Nature of the experiment: Z'-LYTE kinase selectivity assay MAPK9.
Description: as §1, §2, §3

T2 sequence (P45983 whole entry): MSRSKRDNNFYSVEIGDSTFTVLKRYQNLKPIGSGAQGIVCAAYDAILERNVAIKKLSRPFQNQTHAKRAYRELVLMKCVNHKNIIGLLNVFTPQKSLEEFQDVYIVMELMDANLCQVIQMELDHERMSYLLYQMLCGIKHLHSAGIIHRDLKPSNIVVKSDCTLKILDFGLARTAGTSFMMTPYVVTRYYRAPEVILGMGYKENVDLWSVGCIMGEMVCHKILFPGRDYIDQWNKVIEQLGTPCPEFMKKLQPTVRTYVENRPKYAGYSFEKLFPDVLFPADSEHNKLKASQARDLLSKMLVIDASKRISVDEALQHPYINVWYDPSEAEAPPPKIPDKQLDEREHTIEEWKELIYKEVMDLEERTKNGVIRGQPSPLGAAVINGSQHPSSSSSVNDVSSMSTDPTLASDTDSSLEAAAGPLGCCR

Take `C[C@@H]1Cc2nn(C)c(-c3ccccc3)c2-c2nc(Nc3ccn(CCN4CCN(C)CC4)n3)ncc21` [Compound I-1]: the inhibition at 1 µM at STK6 (AURKA (Aurora A)) was -15%.
On to `COCCN1CCN(CCn2ccc(Nc3ncc4c(n3)-c3c(nn(C)c3-c3ccccc3)C[C@H]4C)n2)CC1` [Compound I-11], for which the inhibition at 1 µM was 12% on MAPK8 (JNK1), 7% against MAPK9 (JNK2) and -12% at STK6 (AURKA (Aurora A)).
`C[C@@H]1Cc2nn(C)c(-c3ccccc3)c2-c2nc(Nc3ccn(CCN4CCOCC4)n3)ncc21` [Compound I-2]: the inhibition at 1 µM at STK6 (AURKA (Aurora A)) was found to be 12%.
As to `C[C@@H]1Cc2nn(C)c(-c3ccccc3)c2-c2nc(Nc3ccn(CCN4CCN(CC(C)(C)O)CC4)n3)ncc21` [Compound I-3], the inhibition at 1 µM at STK6 (AURKA (Aurora A)) stood at 14%.
On to `C[C@@H]1Cc2nn(C)c(-c3ccccc3)c2-c2nc(Nc3ccn(CCN4CCN(CC5CCCO5)CC4)n3)ncc21` (stereo partly drawn) [Compound I-9], for which the inhibition at 1 µM at STK6 (AURKA (Aurora A)) came to 10%.
For the compound `CC(O)CN1CCN(CCn2ccc(Nc3ncc4c(n3)-c3c(nn(C)c3-c3ccccc3)C[C@H]4C)n2)CC1` (stereo partly drawn) [Compound I-7], the inhibition at 1 µM on STK6 (AURKA (Aurora A)) turned out to be 5%.
Regarding `C[C@@H]1Cc2nn(C)c(-c3ccccc3)c2-c2nc(Nc3ccn(CCN4CCN(CC(=O)OC5CCOCC5)CC4)n3)ncc21` [Compound I-8], the inhibition at 1 µM on STK6 (AURKA (Aurora A)) was 6%.

By inhibition is commonly meant the change of the read-out against control, counted positive when it falls.
